This passage reports EC50 and Emax results from patent US20240368120A1 (Terns Pharmaceuticals, Inc., priority 2023, published 2024).

SMILES strings stand for the structures.

For orientation: EC50 means the concentration that produces a half-maximal response. The low end stands for an effect from little substance, the high end for a need for much substance. The Emax is the size of the effect at its maximum, as opposed to the concentration needed.

For the assay, the target named is T1, human GLP-1R receptor (Homo sapiens, UniProt P43220).
T1 construct: expressed in transfected cells
The assay can be described thus: GLP-1R low expression cell assay (cAMP TR-FRET, CHO-K1_hGLP-1Rlow_clone10 cells). The class given is cell-based. The note with it: for EC50: cAMP TR-FRET, 30 min at 25° C.; for Emax: maximum activation relative to control GLP-1 peptide agonist. Put shortly:
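CHO-K1 cells stably expressing low surface human GLP-1R (clone10), 1,000 cells/well, exposed to 10-point 3-fold compound dilutions for 30 min at 25 °C. cAMP measured by TR-FRET (Eu-cAMP tracer/ULight-anti-cAMP, 15 min). EC50 from Hill fit of duplicate percent activation relative to a parallel GLP-1 control agonist.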
(In TR-FRET formats the signal depends on donor and acceptor labels being close together.)

T1 sequence (P43220 24-463): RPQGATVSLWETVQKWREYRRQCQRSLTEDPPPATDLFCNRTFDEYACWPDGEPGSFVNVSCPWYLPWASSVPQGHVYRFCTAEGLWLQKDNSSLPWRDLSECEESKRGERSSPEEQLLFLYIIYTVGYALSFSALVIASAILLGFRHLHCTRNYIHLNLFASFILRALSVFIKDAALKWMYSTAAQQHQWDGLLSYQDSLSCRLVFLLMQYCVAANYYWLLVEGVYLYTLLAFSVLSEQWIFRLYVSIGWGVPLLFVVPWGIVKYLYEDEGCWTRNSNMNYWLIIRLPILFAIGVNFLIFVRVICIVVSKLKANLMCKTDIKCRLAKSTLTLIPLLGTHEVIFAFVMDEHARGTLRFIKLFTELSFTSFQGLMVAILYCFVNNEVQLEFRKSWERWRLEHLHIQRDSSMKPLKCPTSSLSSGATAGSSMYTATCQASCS

As to `Cn1c(CN2CCC(c3cccnc3NCc3ccc(Cl)cc3F)CC2)nc2c(OC(F)F)cc(C(=O)O)cc21` [Compound 239, 2-((4-(2-((4-Chloro-2-fluorobenzyl)amino)pyridin-3-yl)piperidin-1-yl)methyl)-4-(difluoromethoxy)-1-methyl-1H-benzo[d]imidazole-6-carboxylic acid], the EC50 was > 1000 nM and the Emax was 50 to 85%.
Consider `N#Cc1ccc(COc2cccc(C3CCN(Cc4nc5c(O)c(C(=O)O)ccc5n4C[C@@H]4CCO4)CC3)n2)c(F)c1` [Compound 376, (S)-2-((4-(6-((4-Cyano-2-fluorobenzyl)oxy)pyridin-2-yl)piperidin-1-yl)methyl)-4-hydroxy-1-(oxetan-2-ylmethyl)-1H-benzo[d]imidazole-5-carboxylic acid], for which the EC50 was < 10 nM and the Emax was > 85%.
`COCCOc1cc(C(=O)O)cc2c1nc(CN1CCC(c3cccc4c3O[C@@](C)(c3ccc(Cl)cn3)O4)CC1)n2C` [Compound 30, (S)-2-((4-(2-(5-Chloropyridin-2-yl)-2-methylbenzo[d][1,3]dioxol-4-yl)piperidin-1-yl)methyl)-4-(2-methoxyethoxy)-1-methyl-1H-benzo[d]imidazole-6-carboxylic acid]: the EC50 is < 10 nM.
Regarding `COCCOc1cc(C(=O)O)cc2[nH]c(CN3CCC(c4cccc5c4O[C@@](C)(c4ccc(Cl)cn4)O5)CC3)nc12` [Compound 74, (S)-2-((4-(2-(5-Chloropyridin-2-yl)-2-methylbenzo[d][1,3]dioxol-4-yl)piperidin-1-yl)methyl)-4-(2-methoxyethoxy)-1H-benzo[d]imidazole-6-carboxylic acid], the EC50 was in the range of 10 to 100 nM and the Emax is > 85%.
The matching figures for `N#Cc1ccc(COc2cccc(C3CCN(Cc4nc5c(O)nc(C(=O)O)cc5n4C[C@@H]4CCO4)CC3)n2)c(F)c1` [Compound 143, (S)-2-((4-(6-((4-Cyano-2-fluorobenzyl)oxy)pyridin-2-yl)piperidin-1-yl)methyl)-4-hydroxy-1-(oxetan-2-ylmethyl)-1H-imidazo[4,5-c]pyridine-6-carboxylic acid]: < 10 nM and > 85%.
Consider `Cn1c(CN2CCC(c3cccc(OCc4ccc(C#N)cc4F)n3)CC2)nc2c(OCCO)cc(C(=O)O)cc21` [Compound 291, 2-((4-(6-((4-Cyano-2-fluorobenzyl)oxy)pyridin-2-yl)piperidin-1-yl)methyl)-4-(2-hydroxyethoxy)-1-methyl-1H-benzo[d]imidazole-6-carboxylic acid], for which the EC50 is < 10 nM and the Emax was > 85%.
With `CNC(=O)c1cc(OC)c2nc(CN3CCC(c4cccc(OCc5ccc(Cl)cc5F)n4)CC3)n(C)c2c1` [Compound 280, 2-((4-(6-((4-chloro-2-fluorobenzyl)oxy)pyridin-2-yl)piperidin-1-yl)methyl)-4-methoxy-N, 1-dimethyl-1H-benzo[d]imidazole-6-carboxamide], the EC50 is > 1000 nM and the Emax was in the range of 50 to 85%.
Taken in the same sequence, the figures for `[2H]C([2H])([2H])Oc1cc(C(=O)O)cc2c1nc(CN1CCC(c3cccc(OCc4ccc(C#N)cc4F)n3)CC1)n2C` [Compound 349, 2-((4-(6-((4-Cyano-2-fluorobenzyl)oxy)pyridin-2-yl)piperidin-1-yl)methyl)-4-(methoxy-d3)-1-methyl-1H-benzo[d]imidazole-6-carboxylic acid] were < 10 nM and > 85%.
Taken in the same sequence, the figures for `Cn1c(CN2CCN(c3cccc(OCc4ccc(Cl)cc4F)n3)CC2)nc2c(OC(F)F)cc(C(=O)O)cc21` [Compound 150, 2-((4-(6-((4-Chloro-2-fluorobenzyl)oxy)pyridin-2-yl)piperazin-1-yl)methyl)-4-(difluoromethoxy)-1-methyl-1H-benzo[d]imidazole-6-carboxylic acid] were 10 to 100 nM and > 85%.
Take `N#Cc1ccc(COc2cccc(C3CCN(Cc4nc5cc(C(=O)O)c6c(c5n4C[C@@H]4CCO4)OCCO6)CC3)n2)c(F)c1` [Compound 101, (S)-2-((4-(6-((4-Cyano-2-fluorobenzyl)oxy)pyridin-2-yl)piperidin-1-yl)methyl)-1-(oxetan-2-ylmethyl)-7,8-dihydro-1H-[1,4]dioxino[2′,3′:3,4]benzo[1,2-d]imidazole-5-carboxylic acid]: the EC50 was in the range of 10 to 100 nM and the Emax was > 85%.
Consider `CC(C)Oc1cc(C(=O)O)cc2c1nc(CN1CCC(c3cccc4c3O[C@@](C)(c3ccc(Cl)cn3)O4)CC1)n2C` [Compound 84, (S)-2-((4-(2-(5-Chloropyridin-2-yl)-2-methylbenzo[d][1,3]dioxol-4-yl)piperidin-1-yl)methyl)-4-isopropoxy-1-methyl-1H-benzo[d]imidazole-6-carboxylic acid], for which the EC50 was < 10 nM and the Emax is > 85%.
`Cn1c(CN2CCC(c3nc(OCc4ccc(Cl)cc4F)ccc3F)CC2)nc2c(OC(F)F)cc(C(=O)O)cc21` [Compound 243, 2-((4-(6-((4-Chloro-2-fluorobenzyl)oxy)-3-fluoropyridin-2-yl)piperidin-1-yl)methyl)-4-(difluoromethoxy)-1-methyl-1H-benzo[d]imidazole-6-carboxylic acid] showed an EC50 of 100 to 1000 nM and a maximal effect (Emax) of 50 to 85%.
With `COc1cc(C(=O)O)cc2c1nc(CN1CCC(c3cccc(OCc4cc(F)c(C#N)cc4F)n3)CC1)n2C` [Compound 327, 2-((4-(6-((4-Cyano-2,5-difluorobenzyl)oxy)pyridin-2-yl)piperidin-1-yl)methyl)-4-methoxy-1-methyl-1H-benzo[d]imidazole-6-carboxylic acid], the EC50 was < 10 nM and the Emax was > 85%.
As for `Cn1c(CN2CCC(c3cccc(OCc4ccc(Cl)cc4F)n3)CC2)nc2c(OC(F)F)cc(-c3noc(=O)[nH]3)cc21` [Compound 236, 3-(2-((4-(6-((4-Chloro-2-fluorobenzyl)oxy)pyridin-2-yl)piperidin-1-yl)methyl)-4-(difluoromethoxy)-1-methyl-1H-benzo[d]imidazol-6-yl)-1,2,4-oxadiazol-5 (4H)-one], the EC50 lay in the range of 100 to 1000 nM and the Emax fell in the range of 50 to 85%.
As for `Cn1c(CN2CCC(c3cccc(OCc4ccc(C(F)(F)F)cc4)n3)CC2)nc2c(OC(F)F)cc(C(=O)O)cc21` [Compound 203, 4-(difluoromethoxy)-1-methyl-2-((4-(6-((4-(trifluoromethyl)benzyl)oxy)pyridin-2-yl)piperidin-1-yl)methyl)-1H-benzo[d]imidazole-6-carboxylic acid], the EC50 is 10 to 100 nM and the Emax is > 85%.
As to `COc1c(Cl)ccc(COc2cccc(C3CCN(Cc4nc5c(OC(F)F)cc(C(=O)O)cc5n4C)CC3)n2)c1F` [Compound 212, 2-((4-(6-((4-Chloro-2-fluoro-3-methoxybenzyl)oxy)pyridin-2-yl)piperidin-1-yl)methyl)-4-(difluoromethoxy)-1-methyl-1H-benzo[d]imidazole-6-carboxylic acid], the EC50 fell in the range of 100 to 1000 nM and the Emax is > 85%.
Taken in the same sequence, the figures for `Cn1c(CN2CCC(c3cccc(OCc4ccc(OC(F)(F)F)cc4F)n3)CC2)nc2c(OC(F)F)cc(C(=O)O)cc21` [Compound 222] were 100 to 1000 nM and > 85%.
